Measurements reported in patent publication US20150105252A1, “SUBSTITUTED PYRAZOLES AS HERBICIDES” (E I DU PONT DE NEMOURS AND COMPANY, priority 2013, published 2015).

Key:
pigweed = assay: Test C postemergence; type: in vivo, Amaranthus retroflexus
Summary of the method: (§1)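 Pre- and postemergence greenhouse screen; vehicle was a non-phytotoxic solvent mix with surfactant. Preemergence: treatment applied right after sowing into loam and sand. Postemergence: treated at 1–4 leaves. Visual rating at 13–15 days, 100 = complete control.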

blackgrass = assay: Test C preemergence; type: in vivo, Alopecurus myosuroides; details: for Blackgrass plant response rating: preemergence
Summary of the method: as §1

oat, wild = assay: Test C postemergence; type: in vivo, Avena fatua
Summary of the method: as §1

wheat = assay: Test C preemergence; type: in vivo, Triticum aestivum; details: for Wheat plant response rating: preemergence
Summary of the method: as §1

lambsquarters = assay: Test C preemergence; type: in vivo, Chenopodium album; details: for Lambsquarters plant response rating: preemergence
Summary of the method: as §1

barnyardgrass = assay: Test B flood; type: in vivo, Echinochloa crus-galli; details: 250 g ai/ha, visual rating on 0 to 100 scale (0 no effect, 100 complete control), 13 to 15 days
Summary of the method: (§2)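 At two leaves, seedlings received the test compound via the paddy water, pots having been flooded 3 cm over the soil surface and kept so. Greenhouse-held for 13 to 15 days, then judged by eye against controls on a scale running 0 (no effect) to 100 (complete control).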

morningglory = assay: Test C postemergence; type: in vivo, Ipomoea coccinea
Summary of the method: as §1

rice = assay: Test B flood; type: in vivo, Oryza sativa; details: 250 g ai/ha, visual rating on 0 to 100 scale (0 no effect, 100 complete control), 13 to 15 days
Summary of the method: as §2

johnsongrass = assay: Test C postemergence; type: in vivo, Sorghum halepense
Summary of the method: as §1

nutsedge, yellow [1] = assay: Test C preemergence; type: in vivo, Cyperus esculentus; details: for Nutsedge, Yellow plant response rating: preemergence, scale 0 to 100 (0 no effect, 100 complete control), 13 to 15 days
Summary of the method: as §1

nutsedge, yellow [2] = assay: Test C postemergence; type: in vivo, Cyperus esculentus
Summary of the method: as §1

foxtail, giant = assay: Test C postemergence; type: in vivo, Setaria faberii
Summary of the method: as §1

ryegrass, Italian = assay: Test C postemergence; type: in vivo, Lolium multiflorum
Summary of the method: as §1

[3] = Postemergence, 31 g ai/ha, visually evaluated after 13 to 15 days
[4] = postemergence, 62 g ai/ha, scale 0 to 100
[5] = postemergence, 250 g ai/ha, scale 0 to 100 (0 no effect, 100 complete control)
[6] = postemergence, 125 g ai/ha, scale 0 to 100, 0 no effect, 100 complete control
[7] = 31 g ai/ha, visual rating, scale 0 to 100 (0 no effect, 100 complete control), 13 to 15 days
[8] = 62 g ai/ha, scale 0 to 100 (0 no effect, 100 complete control), 13 to 15 days
[9] = 125 g ai/ha, scale 0 to 100, 0 is no effect, 100 is complete control

CCc1cc(C(=O)NCC(F)(F)F)nn1Cc1cc(C(F)(F)F)nn1C [Compound 108, 5-ethyl-1-[[1-methyl-3-(trifluoromethyl)-1H-pyrazole-5-yl]methyl]-N-(2,2,2-trifluoroethyl)-1H-pyrazole-3-carboxamide]
Plant response rating (scale of 0 to 100 where 0 is no effect and 100 is complete control), Pigweed (pigweed; [3]): 40
Pigweed plant response rating (pigweed; [4]): 45
Plant response rating, Pigweed (pigweed; [5]): 90
Plant response rating, Pigweed (pigweed; [6]): 50
Plant response rating (scale of 0 to 100), Blackgrass (blackgrass; Preemergence, 250 g ai/ha): 100
Blackgrass plant response rating (blackgrass; [7]): 100
Blackgrass plant response rating (blackgrass; [8]): 100
Blackgrass plant response rating (blackgrass; [9]): 100
Plant response rating (scale of 0 to 100 where 0 is no effect and 100 is complete control), Oat, Wild (oat, wild; [3]): 10
Oat, Wild plant response rating (oat, wild; [4]): 10
Plant response rating, Oat, Wild (oat, wild; [5]): 20
Plant response rating, Oat, Wild (oat, wild; [6]): 15
Plant response rating (scale of 0 to 100), Wheat (wheat; Preemergence, 250 g ai/ha): 70
Wheat plant response rating (wheat; [7]): 10
Wheat plant response rating (wheat; [8]): 10
Wheat plant response rating (wheat; [9]): 60
Plant response rating (scale of 0 to 100), Lambsquarters (lambsquarters; Preemergence, 250 g ai/ha): 100
Lambsquarters plant response rating (lambsquarters; [7]): 100
Lambsquarters plant response rating (lambsquarters; [8]): 100
Lambsquarters plant response rating (lambsquarters; [9]): 100
Plant response rating, Barnyardgrass (barnyardgrass): 40
Plant response rating (scale of 0 to 100 where 0 is no effect and 100 is complete control), Morningglory (morningglory; [3]): 50
Morningglory plant response rating (morningglory; [4]): 50
Plant response rating, Morningglory (morningglory; [5]): 90
Plant response rating, Morningglory (morningglory; [6]): 80
Plant response rating, Rice (rice): 15
Plant response rating (scale of 0 to 100 where 0 is no effect and 100 is complete control), Johnsongrass (johnsongrass; [3]): 0
Johnsongrass plant response rating (johnsongrass; [4]): 0
Plant response rating, Johnsongrass (johnsongrass; [5]): 5
Plant response rating, Johnsongrass (johnsongrass; [6]): 0
Plant response rating (scale of 0 to 100), Nutsedge, Yellow (nutsedge, yellow [1]; Preemergence, 250 g ai/ha): 85
Nutsedge, Yellow plant response rating (nutsedge, yellow [1]; 31 g ai/ha, visual rating): 5
Nutsedge, Yellow plant response rating (nutsedge, yellow [1]; 62 g ai/ha): 40
Plant response rating (scale of 0 to 100 where 0 is no effect and 100 is complete control), Nutsedge, Yellow (nutsedge, yellow [2]; [3]): 0
Nutsedge, Yellow plant response rating (nutsedge, yellow [2]; [4]): 0
Plant response rating, Nutsedge, Yellow (nutsedge, yellow [2]; [5]): 25
Plant response rating, Nutsedge, Yellow (nutsedge, yellow [2]; [6]): 0
Plant response rating (scale of 0 to 100 where 0 is no effect and 100 is complete control), Foxtail, Giant (foxtail, giant; [3]): 10
Foxtail, Giant plant response rating (foxtail, giant; [4]): 30
Plant response rating, Foxtail, Giant (foxtail, giant; [5]): 45
Plant response rating, Foxtail, Giant (foxtail, giant; [6]): 40
Plant response rating (scale of 0 to 100 where 0 is no effect and 100 is complete control), Ryegrass, Italian (ryegrass, Italian; [3]): 0
Ryegrass, Italian plant response rating (ryegrass, Italian; [4]): 5
Plant response rating, Ryegrass, Italian (ryegrass, Italian; [5]): 20
Plant response rating, Ryegrass, Italian (ryegrass, Italian; [6]): 5
